Consider 1 compound from US9765063B2, “Amido compounds as RORγt modulators and uses thereof” (New York University, priority 2011, dated 2017).

Entries after “also recorded” stand apart in the source; their conditions may differ. Where two headings read alike, the source gives them in different places.

Data set [1] has as its system RORγt. Description: RORγt overexpression dependent IL17a production in human CD4 T cells (FIG. 3). It is filed as cell-based. Conditions: FIG. 3, FACS, 0.5 μM; listed as NCGC00242624. The method, then: (§1) Briefly, CD3+ CD4+ CD45RA+ naive human T cells were isolated from peripheral blood derived from healthy donors. The naive T cells were cultured in XVIVO-20 (Lonza) medium for 7 days in the presence of IL2 and stimulatory CD3 and CD28 antibodies. Cells were infected with lentivirus encoding human RORα or RORγ and compound or DMSO was added on day 2. FACS plot analysis is shown after gating on GFP expressing (virus infected) cells.

Data set [2] can be described thus: Half-life in Human Liver Microsomes (HLM). It is filed as in vitro ADME. Here is the method:
Test compounds (1 μM) are incubated with 3.3 mM MgCl2 and 0.78 mg/mL HLM (HL101) in 100 mM potassium phosphate buffer (pH 7.4) at 37° C. on the 96-deep well plate. The reaction mixture is split into two groups, a non-P450 and a P450 group. NADPH is only added to the reaction mixture of the P450 group. An aliquot of samples of the P450 group is collected at 0, 10, 30, and 60 min time points, where the 0 min time point indicated the lime at which NADPH is added into the reaction mixture of the P450 group. […] Collected aliquots are extracted with acetonitrile solution containing an internal standard. […] The compound concentration in supernatant is measured by LC/MS/MS system.
The half-life value is obtained by plotting the natural logarithm of the peak area ratio of compounds/internal standard versus time. The slope of the line of best fit through the points yields the rate of metabolism (k). This is converted to a half-life value using following equations: Half-life=ln 2/k
Background: Microsomes from liver hold many membrane-bound enzymes, among them those of drug oxidation.

Data set [3] addresses T1, RORγt (Mus musculus, UniProt P51450).
T1 construct: expressed in transfected cells; the other entry of the earlier key: GAL4 (P04386, Regulatory protein GAL4)
Description: RORγt S2 cell reporter assay (Gal4-RORγt fusion, UAS-luciferase). It is filed as cell-based. From the text: Methods: The Drosophila S2 cell line was originally purchased from Invitrogen and was maintained in Schneider's medium supplemented with 10% heat-inactivated bovine fetal calf serum and antibiotics (Invitrogen). […] The resulting chimeric gene was subcloned into the copper inducible pMT/V5-His A vector (available from Invitrogen).
Renilla luciferase construct under the polIII promoter was obtained from Dr. Dasgupta's laboratory (NYU medical center). In order to generate stable cell lines, cells were co-transfected with pMT-G4DBD-RORγt, pMT-G4DBD-RORα, pMT-G4DBD-DHR3, or pMT-G4DBDVP16 and pHygro plasmids (Invitrogen) and screened for resistant colonies in the presence of hygromycin (0.3 mg/mL). […] Using similar methods, stable clones with genomic integration of the luciferase reporters and other reporters were generated such as pMT-RORα_luc, pMT-DHR3_luc, or pMT-VP16_luc.
Methods: 600 G4DBD-RORγ/γt-luc reporter (#25) or G4DBD-VP16-luc reporter cells were distributed into each well of 1,536-well white bottom plates in 4 μl S2 cell culture volume containing hygromicin (300 μg/ml) and puromycin (2 μg/ml). […] After one-hour incubation, 1 of culture medium solution containing copper sulfate (to final 0.7 mM) and 10 μM RORγ/γt antagonists were added to each well. After 20-hour incubation at ambient temperature, 1.5 μl firefly luciferase detection mix was added and the luciferase activities were measured in 10 min. ViewLux luminometers were used for measuring luciferase signal.
A cell-based reporter assay was used to detect RORγt-mediated activity. This assay, called RORγt employed Drosophila Schneider cells that were stably transfected with two vectors: a gene expressing a fusion of the Gal4 DNA binding domain and RORγt transactivation domain under the control of the metallothionine promoter and a Photinus luciferase reporter regulated by the Gal4 binding site enhancer, UAS. […] Cells (600/well) were dispensed into white solid 1536-well plates (Greiner) using a solenoid-based dispenser. Following transfer of […] compound or DMSO vehicle by a pin tool, the plates were incubated 1 hr at ambient temperature, and 1 uL/well copper sulfate (700 uM final concentration) was added. The plates were centrifuged 15 s at 1000 RPM and incubated 20 hr at ambient temperature. After addition of 1.5 uL Photinus luciferase detection reagent, the plates were incubated 10 min at ambient temperature and then read by a ViewLux (Perkin Elmer) to detect luminescence. […] Efficacy is expressed as % of the maximal response of control inhibitor (Digoxin), set at 100%.
(Reporter assays use an easily measured gene product as a stand-in for the process of interest.)

The test system of data set [4] is human Th1 cell differentiation. Description: Human Th1 cell differentiation, IFNγ production (counter-screen, FIG. 2). In kind it is cell-based. Conditions: FIG. 2, FACS, 0.5 μM, naive CD4 T cells, IL12 and IL2; listed as NCGC00242624. Here is the method: For Th1 differentiation, IL12 (10 ng/ml) and IL2 (100 U/ml) were added to naive CD4 T cell cultures instead of TGFβ and IL6.
(In general: A counterscreen serves to expose hits that act by an unwanted route or on another target.)

In data set [5] the test system is RORα. Description: RORα overexpression dependent IL17a production in human CD4 T cells (FIG. 3). In kind it is cell-based. Conditions: FIG. 3, FACS, 0.5 μM; listed as NCGC00242624. The method, then: as §1

T1 sequence (P51450 with tags, fused parts or gaps): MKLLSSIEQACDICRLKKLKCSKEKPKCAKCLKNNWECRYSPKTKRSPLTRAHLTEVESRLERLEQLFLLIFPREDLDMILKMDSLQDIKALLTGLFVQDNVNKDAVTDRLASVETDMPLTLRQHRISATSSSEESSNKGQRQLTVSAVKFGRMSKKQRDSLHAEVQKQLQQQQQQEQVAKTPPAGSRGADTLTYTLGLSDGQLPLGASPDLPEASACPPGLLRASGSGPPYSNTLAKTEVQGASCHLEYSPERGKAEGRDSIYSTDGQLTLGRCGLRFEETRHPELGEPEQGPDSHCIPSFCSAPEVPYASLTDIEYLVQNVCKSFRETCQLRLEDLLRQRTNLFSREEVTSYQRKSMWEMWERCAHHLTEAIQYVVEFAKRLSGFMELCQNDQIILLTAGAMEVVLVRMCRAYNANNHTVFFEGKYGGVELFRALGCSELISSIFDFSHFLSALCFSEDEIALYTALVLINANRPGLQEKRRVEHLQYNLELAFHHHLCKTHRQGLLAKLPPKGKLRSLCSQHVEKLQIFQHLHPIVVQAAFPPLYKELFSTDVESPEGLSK

Regarding `COc1cc(O)c(C(CC(=O)N2CC(C)CC(C)C2)c2ccc(C(=O)O)cc2)c(OC)c1` (stereo not shown) [Compound 99, 4-(3-(3,5-Dimethylpiperidin-1-yl)-1-(2-hydroxy-4,6-dimethoxyphenyl)-3-oxopropyl)benzoic acid], in data set [1], the “RORγt overexpression dependent IL17a production in human CD4 T cells” value is “selectively inhibit RORγt dependent; also recorded: selectively inhibits RORγt overexpression dependent IL17a production”. For the same compound, the “% Remaining @ 60 min” value in data set [2] (1 μM compound, 0.78 mg/mL HLM, 37° C., 60 min) stood at 51.36%. Moreover, in data set [2] (HLM, Table 3 data), the “stability compared with compounds 150 and 157” value is “better or improved stability over the compounds with IDs 150 and 157”; the “stability compared with verapamil” value is given as “improved stability with respect to verapamil”. For the same compound, the half-life (commonly the time in which the quantity being followed falls by half) at 1 μM in data set [2] (human, human liver microsomes, pH 7.4, 1 μM compound, 0.78 mg/mL HLM, 37° C., Half-life=ln 2/k) is 1.07 h. In addition, the microsomal CLint at 1 μM in data set [2] (human, human liver microsomes, pH 7.4, 1 μM compound, 0.78 mg/mL HLM, 37° C., read-out: CLint (uM/Min/mg proteins)) is 21.6 µL/min/mg. For the same compound, the IC50 (usually the midpoint of a concentration-inhibition curve) in data set [3] (Table 1, Drosophila S2 cells, luciferase reporter, read-out: IC50) lay in the range of 1000 to 10000 nM. Further, in data set [3] (Table 2, from the S2 cell reporter assay, listed for comparison, read-out: S2 cell RORg IC50), the IC50 was less than 1000 nM. For the same compound, the “Th1 cell differentiation, as measured by IFNγ production” value in data set [4] is on record as “does not inhibit Th1 cell differentiation”. Moreover, in data set [5], the “RORα overexpression dependent IL17a production in human CD4 T cells” value was “unaffected”.
